Test results as given in ChEMBL document CHEMBL4385622, “Discovery of velpatasvir (GS-5816): A potent pan-genotypic HCV NS5A inhibitor in the single-tablet regimens Vosevi® and Epclusa®” (Bioorg Med Chem Lett, 2019).

Legend:
[1] = Fraction absorbed in dog; type: ADME, Canis lupus familiaris; settings: in vivo, read-out: Fabs
[2] = Fraction absorbed in rat; type: ADME; settings: in vivo, read-out: Fabs
[3] = Fraction absorbed in cynomolgus monkey; type: ADME, Macaca fascicularis; settings: in vivo, read-out: Fabs
[4] = Selectivity index, ratio of CC50 for human Huh7 cells infected with HCV genotype 1a H77 to EC50 for NS5A in HCV genotype 1a H77 infected in human HuH7 replicon cells; type: toxicity, cell-based; settings: read-out: Ratio CC50/EC50
[5] = Cytotoxicity against human HuH7 cells infected with HCV genotype 1a H77 assessed as reduction in cell viability incubated for 5 days by CellTiter-Glo luminescent assay; type: cell-based, Huh-7
[6] = Half life in monkey at 0.5 mg/kg, iv; type: ADME, organism-based, Macaca mulatta; settings: rhesus monkey, in vivo
[7] = Cytotoxicity against human MRC5 cells infected with HCV genotype 1b Con-1 assessed as reduction in cell viability incubated for 5 days by CellTiter-Glo luminescent assay; type: cell-based
[8] = Cytotoxicity against human HuH7 cells infected with HCV genotype 1b Con-1 assessed as reduction in cell viability incubated for 5 days by CellTiter-Glo luminescent assay; type: cell-based, Huh-7
[9] = Clearance in monkey at 0.5 mg/kg, iv; type: ADME, organism-based, Macaca mulatta; settings: rhesus monkey, in vivo
[10] = Selectivity index, ratio of CC50 for human MT4 cells infected with HCV genotype 1a H77 to EC50 for NS5A in HCV genotype 1a H77 infected in human MT4 replicon cells; type: toxicity, cell-based; settings: read-out: Ratio CC50/EC50
[11] = Selectivity index, ratio of CC50 for human HepG2 cells infected with HCV genotype 1a H77 to EC50 for NS5A in HCV genotype 1a H77 infected in human HepG2 replicon cells; type: toxicity, cell-based; settings: read-out: Ratio CC50/EC50
[12] = Cytotoxicity against human HepG2 cells infected with HCV genotype 1a H77 assessed as reduction in cell viability incubated for 5 days by CellTiter-Glo luminescent assay; type: cell-based
[13] = Selectivity index, ratio of CC50 for human MRC5 cells infected with HCV genotype 1a H77 to EC50 for NS5A in HCV genotype 1a H77 infected in human MRC5 replicon cells; type: toxicity, cell-based; settings: read-out: Ratio CC50/EC50
[14] = Cytotoxicity against human PC3 cells infected with HCV genotype 1a H77 assessed as reduction in cell viability incubated for 5 days by CellTiter-Glo luminescent assay; type: cell-based, PC-3
[15] = Oral bioavailability in rat at 2 mg/kg; type: ADME, organism-based; settings: in vivo
[16] = Clearance in dog at 0.25 mg/kg, iv; type: ADME, organism-based, Canis lupus familiaris; settings: in vivo
[17] = Cytotoxicity against human HepG2 cells infected with HCV genotype 1b Con-1 assessed as reduction in cell viability incubated for 5 days by CellTiter-Glo luminescent assay; type: cell-based
[18] = Oral bioavailability in dog at 0.5 mg/kg; type: ADME, organism-based, Canis lupus familiaris; settings: in vivo
[19] = Cytotoxicity against human MT4 cells infected with HCV genotype 1b Con-1 assessed as reduction in cell viability incubated for 5 days by CellTiter-Glo luminescent assay; type: cell-based
[20] = Volume of distribution at steady state in dog at 0.25 mg/kg, iv; type: ADME, organism-based, Canis lupus familiaris; settings: in vivo, read-out: Vdss
[21] = Half life in dog at 0.25 mg/kg, iv; type: ADME, organism-based, Canis lupus familiaris; settings: in vivo
[22] = Volume of distribution at steady state in monkey at 0.5 mg/kg, iv; type: ADME, organism-based, Macaca mulatta; settings: rhesus monkey, in vivo, read-out: Vdss
[23] = Volume of distribution at steady state in rat at 2 mg/kg, iv; type: ADME, organism-based; settings: in vivo, read-out: Vdss
[24] = Unbound drug level in rat plasma; type: ADME, cell-free
[25] = Cytotoxicity against human PC3 cells infected with HCV genotype 1b Con-1 assessed as reduction in cell viability incubated for 5 days by CellTiter-Glo luminescent assay; type: cell-based, PC-3
[26] = Clearance in rat at 2 mg/kg, iv; type: ADME, organism-based; settings: in vivo
[27] = Oral bioavailability in human at 100 mg; type: ADME, organism-based; settings: in vivo
[28] = Unbound drug level in dog plasma; type: ADME, cell-free, Canis lupus familiaris
[29] = Selectivity index, ratio of CC50 for human PC3 cells infected with HCV genotype 1a H77 to EC50 for NS5A in HCV genotype 1a H77 infected in human PC3 replicon cells; type: toxicity, cell-based; settings: read-out: Ratio CC50/EC50
[30] = Half life in human at 100 mg, po; type: ADME; settings: in vivo
[31] = Cytotoxicity against human MRC5 cells infected with HCV genotype 1a H77 assessed as reduction in cell viability incubated for 5 days by CellTiter-Glo luminescent assay; type: cell-based
[32] = Oral bioavailability in monkey at 1 mg/kg; type: ADME, organism-based, Macaca mulatta; settings: rhesus monkey, in vivo
[33] = Half life in rat at 2 mg/kg, iv; type: ADME, organism-based; settings: in vivo
[34] = Unbound drug level in human plasma; type: ADME, cell-free
[35] = Unbound drug level in monkey plasma; type: ADME, cell-free, Macaca mulatta; settings: rhesus monkey
[36] = Cytotoxicity against human MT4 cells infected with HCV genotype 1a H77 assessed as reduction in cell viability incubated for 5 days by CellTiter-Glo luminescent assay; type: cell-based

`COC[C@H]1C[C@@H](c2nc3ccc4cc5c(cc4c3[nH]2)OCc2cc(-c3cnc([C@@H]4CCCN4C(=O)[C@@H](NC(=O)OC)C(C)C)[nH]3)ccc2-5)N(C(=O)[C@@H](NC(=O)OC)C(C)C)C1` gave a Fa [1] of 56% and a Fa [2] of 16%.
Molecule `COC(=O)N[C@@H](C(=O)N1CCC[C@H]1c1ncc(-c2cc3c4c(c2)OCc2cc(-c5cnc([C@@H]6CCCN6C(=O)[C@H](NC(=O)OC)c6ccccc6)[nH]5)cc(c2-4)OC3)[nH]1)c1ccccc1` has a Fa [3] of 2%, a Fa [1] of 34% and a Fa [2] of 2%.
Molecule `COC[C@H]1C[C@@H](c2ncc(-c3ccc4c(c3)COc3cc5c(ccc6nc([C@@H]7C[C@H](C)CN7C(=O)[C@@H](NC(=O)OC)C(C)C)[nH]c65)cc3-4)[nH]2)N(C(=O)[C@H](NC(=O)OC)c2ccccc2)C1` has a Fa [3] of 4% and a Fa [2] of 9%.
`COC(=O)N[C@@H](C(=O)N1[C@@H](C)CC[C@H]1c1ncc(-c2cc3c4c(c2)OCc2cc(-c5cnc([C@@H]6CC[C@H](C)N6C(=O)[C@H](NC(=O)OC)c6ccccc6)[nH]5)cc(c2-4)OC3)[nH]1)c1ccccc1` gave a Fa [1] of 43% and a Fa [2] of 3%.
In the case of `COC(=O)N[C@H](C(=O)N1C[C@@H](C)C[C@H]1c1nc2ccc3cc4c(cc3c2[nH]1)OCc1cc(-c2cnc([C@@H]3C[C@H](C)CN3C(=O)[C@H](NC(=O)OC)c3ccccc3)[nH]2)ccc1-4)C(C)C`, the Fa [2] is reported as 4%.
With `COC[C@H]1C[C@@H](c2ncc(-c3ccc4c(c3)COc3cc5c(ccc6nc([C@@H]7CC[C@H](C)N7C(=O)[C@@H](NC(=O)OC)C(C)C)[nH]c65)cc3-4)[nH]2)N(C(=O)[C@H](NC(=O)OC)c2ccccc2)C1` [VELPATASVIR] the selectivity ratio [4] was over 4.9e+06, the CC50 at 120 h [5] was over 44.4 µM and the half-life [6] was 5.03 h. For the same molecule, the CC50 at 120 h [7] was over 44.4 µM, the CC50 at 120 h [8] was over 44.4 µM and the clearance [9] was 5 mL/min/kg. For the same molecule, the selectivity ratio [10] was over 4.9e+06, the selectivity ratio [11] was over 4.9e+06 and the CC50 at 120 h [12] was over 44.4 µM. It also gave a selectivity ratio [13] of over 4.9e+06, a CC50 at 120 h [14] of over 44.4 µM and a bioavailability [15] of 28%. The clearance [16] was 4.17 mL/min/kg, the CC50 at 120 h [17] was over 44.4 µM and the bioavailability [18] was 25%. The CC50 at 120 h [19] was over 44.4 µM, the Vd [20] was 1.43 L/kg and the half-life [21] was 5.2 h. It also gave a Vd [22] of 1.6 L/kg, a Vd [23] of 1.61 L/kg and a Fa [3] of 37%. It also gave a Fa [1] of 29%, a Fu [24] of 0.2% and a CC50 at 120 h [25] of over 44.4 µM. For the same molecule, the clearance [26] was 15.7 mL/min/kg, the bioavailability [27] was 50% and the Fu [28] was 0.2%. For the same molecule, the selectivity ratio [29] was over 4.9e+06, the half-life [30] was 15.7 h and the CC50 at 120 h [31] was over 44.4 µM. For the same molecule, the bioavailability [32] was 30%, the half-life [33] was 2.25 h and the Fa [2] was 36%. It also gave a Fu [34] of 0.3%, a Fu [35] of 0.4% and a CC50 at 120 h [36] of over 44.4 µM.
Work on `COC[C@H]1C[C@@H](c2ncc(-c3ccc4c(c3)COc3cc5c(ccc6nc([C@@H]7C[C@H](COC)CN7C(=O)[C@@H](NC(=O)OC)C(C)C)[nH]c65)cc3-4)[nH]2)N(C(=O)[C@@H](NC(=O)OC)C(C)C)C1` yielded a Fa [2] of 10%.
Work on `COC[C@H]1C[C@@H](c2nc3ccc4cc5c(cc4c3[nH]2)OCc2cc(-c3cnc([C@@H]4C[C@H](C)CN4C(=O)[C@@H](NC(=O)OC)C(C)C)[nH]3)ccc2-5)N(C(=O)[C@@H](NC(=O)OC)C(C)C)C1` yielded a Fa [2] of 11%.
For `COC(=O)N[C@H](C(=O)N1[C@@H](C)CC[C@H]1c1nc2ccc3cc4c(cc3c2[nH]1)OCc1cc(-c2cnc([C@@H]3C[C@H](C)CN3C(=O)[C@H](NC(=O)OC)c3ccccc3)[nH]2)ccc1-4)C(C)C`, the Fa [2] was 4%.
For `COC[C@H]1C[C@@H](c2ncc(-c3ccc4c(c3)COc3cc5c(ccc6nc([C@@H]7CCCN7C(=O)[C@@H](NC(=O)OC)C(C)C)[nH]c65)cc3-4)[nH]2)N(C(=O)[C@H](NC(=O)OC)c2ccccc2)C1`, the Fa [3] was 3% and the Fa [2] was 12%.
